Results published in US10005815B2, “Biologically cleavable tetrapeptide linking agents” (Arrowhead Madison Inc., priority 2015, dated 2018).
Non-standard residues stand in square brackets, D forms with d. Residues, ends and D or L forms follow the SMILES beside them. *: point of attachment. CH3O(CH2CH2O)11CH2CH2CO = COCCOCCOCCOCCOCCOCCOCCOCCOCCOCCOCCOCCC(=O)*; X1 = O=[N+]([O-])c1ccc(NCCN*)cc1; Cit = NC(=O)NCCC[C@H](N)C(=O)O

Key:
human liver S9 extract = assay: Digestion with human liver S9 extract; assay type: biochemical; details: normalized to compound 23
Protocol: (§1) Proteolytic digestion experiments were carried out at a fixed substrate concentration (0.51 μmol) using liver lysosomal (enzyme) extract (0.45 μg/μL) in a 25 mM MES solution buffered to pH 5 containing 1% CHAPS and 1.8 mM DTT incubated at 37° C. Enzyme extract was activated in the presence of DTT for 15 minutes at 37° C. prior to addition of AENA labeled peptide substrates. At various time points, up to 26 h, 20 μL aliquots were removed and acidified to a pH of 3 with TFA. Analysis of fractions was performed using HPLC with a Aquasil C18 reverse-phase column (250×4.6, Thermofisher, Waltham, Mass.), monitored at 390 nm and 335 nm for AENA and EDANS respectively. Elution was performed with a gradient of acetonitrile and water buffered with 0.1% formic acid. Generation of unmodified reporter molecule was measured. To minimize freeze thaw cycles the lysosomal extract was dispensed into multiple aliquots prior to storage at −80° C. A new aliquot was employed for each study and used immediately upon thawing. Lysosomal extract was sourced from female Hans Wistar rats by differential density gradient centrifugation (Graham et al. 2000). Protein concentration of lysosomal extract was determined by standard BCA protein assay protocols. Compound 60 was used for normalization of velocity between experiments (Tables 2-4). […] Normalized sample velocity was calculated as: [(average compound 60 velocity[…]experimental compound 60 velocity)]×sample experimental velocity.
(§2) The observed rates of cleavage were not dependent on the source of proteolytic enzymes. The order of increasing velocity (23>30>37>42) was maintained when digested using commercially available rat and human liver S9 extract (Xenotech LLC, Lenexa, Kans.) (Table 5). Thus rates of cleavage are expected to be similar across different species and cell types.

rat liver S9 extract = assay: Digestion with rat liver S9 extract; assay type: biochemical; details: normalized to compound 23
Protocol: as §1, §2

[1] = test system: liver lysosomal (enzyme) extract; assay: Digestion assay with rat liver lysosomal extract; assay type: biochemical; details: for Sample Velocity / Normalized Velocity: AENA substrates; for Sample Velocity: linear rate of reporter generation at <50% completion, pH 5, 37° C.; for Normalized Velocity: normalized with compound 60 velocity (average 123.8 nmol/h); for Relative Velocity, Lysosomal Extract: normalized to compound 23
Protocol: Various amino acid combinations, tetrapeptides, were used to link various first moieties (R^5) and an AENA report group second compound (R^6) to form assay substrates (substrates). Cleavage rate of the peptides were evaluated by analysis of digestion of the substrates in the presence of rat lysosomal extract.
Reporting groups were coupled to the C-terminus of the peptide substrates as described above for UV-vis monitoring to explore the influence of amino acid sequence on kinetics of peptide degradation by HPLC. N-(2-aminoethyl)-4-nitroaniline (AENA) or N-(aminoethyl)-5-napthylamine-1-sulfonic acid (EDANS) were used as reporting groups for HPLC monitoring as neither absorptivity nor lambda maximum were affected for either after cleavage from the peptide. The N-terminus of each peptide substrate was modified with either methoxy polyethylene glycol (PEG12) or N-acetyl galactosamine (NAG(OR)3) (FIG. 1).
Proteolytic digestion experiments were carried out at a fixed substrate concentration (0.51 μmol) using liver lysosomal (enzyme) extract (0.45 μg/μL) in a 25 mM MES solution buffered to pH 5 containing 1% CHAPS and 1.8 mM DTT incubated at 37° C. Enzyme extract was activated in the presence of DTT for 15 minutes at 37° C. prior to addition of AENA labeled peptide substrates. At various time points, up to 26 h, 20 μL aliquots were removed and acidified to a pH of 3 with TFA. Analysis of fractions was performed using HPLC with a Aquasil C18 reverse-phase column (250×4.6, Thermofisher, Waltham, Mass.), monitored at 390 nm and 335 nm for AENA and EDANS respectively. Elution was performed with a gradient of acetonitrile and water buffered with 0.1% formic acid. Generation of unmodified reporter molecule was measured. To minimize freeze thaw cycles the lysosomal extract was dispensed into multiple aliquots prior to storage at −80° C. A new aliquot was employed for each study and used immediately upon thawing. Lysosomal extract was sourced from female Hans Wistar rats by differential density gradient centrifugation (Graham et al. 2000). Protein concentration of lysosomal extract was determined by standard BCA protein assay protocols. […]
Rate (also called velocity of degradation or velocity) was extrapolated during early linear turnover (Table 2). As used herein, rate is defined as the linear rate of reporting group generation at less than 50% completion (digestion rate was assumed to be linear at less than 50% completion). For substrates in which cleavage deviated from consecutive first order kinetics, the percent of reporting group liberated at the endpoint of digestion was used as a metric for comparison.

Factor VII = assay: Serum Factor VII activity after DPC-mediated siRNA delivery in mice; assay type: in vivo; details: for effectiveness as modifying agent in DPC-mediated siRNA delivery: Factor VII knockdown; for Relative F VII activity: polymer-siRNA conjugate modified with the PEG-peptide agent and CDM-NAG, 1 mg/kg polymer, 0.25 mg/kg siRNA, day 5
Protocol: PEG tetrapeptide modifying agents were synthesized by using a PEG group at R^5 and an activated ester at R^7 (formula V). Membrane active polyamines (see below) were modified with Factor VII siRNA, CDM-NAG and the indicated tetrapeptide (45b, 46) or tripeptide control (47) modifying agents as previously described (U.S. Pat. Nos. 8,137,695 and 8,426,554) to form a dynamic polyconjugate delivery polymer. 1 mg/kg polymer conjugated to 0.25 mg/kg siRNA was then injected into mice. At day 5, samples were collected and assayed for Factor VII. Knockdown of Factor VII requires cleavage of the modifying agent from the polyamine at a rate similar to the previously described CDM masking agents and dipeptide-PABC masking agents. […] For dynamic polyconjugate delivery polymers modified with PEG12 functionalized tetrapeptides, the order of increasing knockdown in vivo (45b>46>47) correlated with in vitro kinetic results. Validation of the in vitro model for kinetic evaluation was shown by the results obtained in animal studies.
Polyacrylate EAB in 5 mM pH 8.0 HEPES buffer was modified 1.5 wt % with a N-hydroxysuccinimidyl activated PEG4 azide (Azido-dPEG4-NHS ester from Quanta Biodesign) to provide azide groups for subsequent attachment of siRNA. The azide-modified polymer was then diluted to 5 mg/mL in 60 mg/mL HEPES base. To this solution was added 15 mg/mL (3 wt equivalents) of the indicated protease-cleavable PEG modifying reagents (the described herein tetrapeptide agents or PEG12-FCit-PABC-PNP (8426554) to modify 40-50% of available amine groups. After 1 h, DBCO-modified rodent factor VII siRNA (0.25 wt eq relative to polymer) was added to polymer solution. After incubation overnight, conjugates were further modified by addition of molar excess relative to available amine groups of an N-acetylgalactosamine derivative CDM-NAG, NAG-A^4-A^3-A^2-A^1-NHS or NAG-ACit-PABC-PNP (U.S. Pat. No. 8,426,554, Rozema et al. 2015, Carlson et al. 2015), and incubated for 30 min to reversibly modify remaining polymer EAB amines.
Male Wistar Han rats and female ICR mice, 6 to 8 weeks old, were obtained from Harlan Sprague-Dawley, (Indianapolis, Ind.). Animals were handled in accordance with animal used protocols approved by the Animal Care and Use Committee at Arrowhead Madison Inc. Rodents were maintained on a 12 hours light/dark cycle with free access to water and food (Harlan Teklad Rodent Diet, Harlan, Madison, Wis.). Animals were injected with 1 mg/kg polymer conjugated to 0.25 mg/kg siRNA. Samples were collected 5 days post injection.
FVII activity in serum was measured with a chromogenic method using a test kit (BIOPHEN VII, Aniara, Mason, Ohio) following manufacturer's recommendations. Absorbance of colorimetric development was measured using a Tecan Safire-2 microplate reader at 405 nm.

COCCOCCOCCOCCOCCOCCOCCOCCOCCOCCOCCOCCC(=O)N[C@@H](Cc1ccccc1)C(=O)N[C@@H](CCCNC(N)=O)C(=O)N[C@@H](Cc1ccccc1)C(=O)N1CCC[C@H]1C(=O)NCCNc1ccc([N+](=O)[O-])cc1 [Compound 23, PEG12-FCitFP-AENA] ({CH3O(CH2CH2O)11CH2CH2CO}-F[Cit]FP-X1)
Relative Velocity, HUMAN S9 Extract (human liver S9 extract): 100.0 | Relative Velocity, RAT S9 Extract (rat liver S9 extract): 100.0

COCCOCCOCCOCCOCCOCCOCCOCCOCCOCCOCCOCCC(=O)N[C@@H](CCCNC(N)=O)C(=O)N[C@@H](C)C(=O)N1CCC[C@H]1C(=O)NCCNc1ccc([N+](=O)[O-])cc1 [Compound 42, PEG12-CitAP-AENA]
Relative Velocity, HUMAN S9 Extract (human liver S9 extract): 1.7 | Relative Velocity, RAT S9 Extract (rat liver S9 extract): 0.6

NAG(OAc)3-ACitAP- AENA [Compound 37]
Relative Velocity, HUMAN S9 Extract (human liver S9 extract): 7.1 | Sample Velocity [1]: 11.8 nmol/h | Normalized Velocity [1]: 13.5 nmol/h | % Released at Endpoint (21 hr) [1]: 44.2% | Relative Velocity, Lysosomal Extract [1]: 7.0 | Relative Velocity, RAT S9 Extract (rat liver S9 extract): 3.3

NAG(OAc)3-FCitAP- AENA [Compound 30]
Relative Velocity, HUMAN S9 Extract (human liver S9 extract): 45.7 | Sample Velocity [1]: 54.3 nmol/h | Normalized Velocity [1]: 62.0 nmol/h | % Released at Endpoint (21 hr) [1]: 96.5% | Relative Velocity, Lysosomal Extract [1]: 32.1 | Relative Velocity, RAT S9 Extract (rat liver S9 extract): 28.3

PEG-ACitAP-OSu [Compound 46]
effectiveness as modifying agent in DPC-mediated siRNA delivery (Factor VII): effective modifying agents | Relative F VII activity (Factor VII): 66 ± 28

PEG-CitAP-OSu [Compound 47]
Relative F VII activity (Factor VII): 97 ± 34

PEG-FCitAP-OSu [Compound 45b]
effectiveness as modifying agent in DPC-mediated siRNA delivery (Factor VII): effective modifying agents | Relative F VII activity (Factor VII): 40 ± 06
